The assay deals with squalene synthetase. Kind of assay: Squalene synthetase assay (rat liver microsomes, [4-14C]farnesyl pyrophosphate). The settings on record: C18 HPLC fractions of Curvularia lunata (MF5573 or MF5572) fermentation extract, shown to contain Compound (I). It is filed as biochemical.

Structures are written as SMILES.

Method: Male, Charles River CD rats (120 to 150 g) were fed a diet containing 0.1% lovastatin for 4 days. The livers from these rats were homogenized in 5 volumes (mL/g) of ice cold 50 mm HEPES (4-(2-hydroxyethyl)-1-piperazine-ethanesulfonic acid), 5 mm EDTA(ethylenediaminetetraacetic acid) pH 7.5 with a Potter-Elvehjem type tissue grinder. The homogenate was centrifuged twice at 20,000×g for 15 min. at 4° C., discarding the pellet each time. The supernatant was then centrifuged at 100,000×g for 1 hr. at 4° C. The resulting microsomal pellet was resuspended in a volume of the above homogenizing buffer equal to one-fifth the volume of the original homogenate. This microsomal preparation has a protein concentration of about 7 mg/ml. The microsomal suspensions were stored in aliquots at -70° C. Squalene synthetase activity in these aliquots is stable for at least several months.
SQUALENE SYNTHETASE ASSAY
Reactions were performed in 16×125 mm screw cap test tubes. A batch assay mix was prepared from the following solution:
This assay mix was degassed under a vacuum and flushed with N2. […] Ten mL of scintillation fluid was added to the heptane solution and radio-activity was determined by liquid scintillation counting.
Percent inhibition is calculated by the formula: [formula]

On to `C=C(CCC12OC(C(=O)O)C(O)(C(=O)O)C(C(=O)O)(O1)C(OC(=O)/C=C/C(C)CC(C)CC)C2O)C(OC(C)=O)C(C)Cc1ccccc1` (stereo not shown) [Compound (I)], for which the “activity in the squalene synthetase assay” value is reported as “active”.

(Values after patent US5250424A, “Processes for preparing novel squalene synthetase inhibitors” (Merck & Co., Inc., priority 1992, dated 1993).)
